Test results: the supplement of paper PMC11061612

How the values were obtained:
Experiment in all cases: Bliss excess, mean over the matrix (fraction); higher = more synergy
COLO-679 (Melanoma) = tested on: COLO-679 (Melanoma)
How it was run: (§1)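 Cell lines in DMEM/F12 or RPMI with 10% FBS were plated in 1536-well plates, held 24 hours at 37°C, 5% CO2, then given two-drug dose matrices for 72 hours (DMSO typically 0.2%). Viability was read by CellTiter-Glo 2.0 luminescence and scaled as inhibition from 0 (vehicle wells) to 1 (blank wells). Combination Emax is the second-highest inhibition in the matrix; Bliss excess is observed combination effect minus expected EA + EB − EA·EB, EA and EB being single-agent effects.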

[1] = tested on: SKN (Other Solid Carcinomas)
How it was run: as §1

[2] = tested on: DU-145 (Prostate Carcinoma)
How it was run: as §1

[3] = tested on: OE33 (Esophageal Adenocarcinoma)
How it was run: as §1

[4] = tested on: A4-Fuk (B-Lymphoblastic Leukemia)
How it was run: as §1

[5] = tested on: Mo-T (Other Blood Carcinomas)
How it was run: as §1

[6] = tested on: SK-LU-1 (Lung Adenocarcinoma)
How it was run: as §1

[7] = tested on: SW872 (Other Solid Carcinomas)
How it was run: as §1

[8] = tested on: KGN (Other Solid Carcinomas)
How it was run: as §1

[9] = tested on: NCI-H522 (Lung Adenocarcinoma)
How it was run: as §1

SK-N-AS (Neuroblastoma) = tested on: SK-N-AS (Neuroblastoma)
How it was run: as §1

[10] = tested on: MOG-G-UVW (Low Grade Glioma)
How it was run: as §1

[11] = tested on: MDA-MB-453 (Breast Carcinoma)
How it was run: as §1

[12] = tested on: Ca-Ski (Cervical Carcinoma)
How it was run: as §1

[13] = tested on: ALL-SIL (T-Lymphoblastic Leukemia)
How it was run: as §1

EW-1 (Ewing's Sarcoma) = tested on: EW-1 (Ewing's Sarcoma)
How it was run: as §1

[14] = tested on: NCI-H2122 (Lung Adenocarcinoma)
How it was run: as §1

[15] = tested on: HCC2998 (Colorectal Carcinoma)
How it was run: as §1

[16] = tested on: HCC1500 (Breast Carcinoma)
How it was run: as §1

[17] = tested on: EJM (Plasma Cell Myeloma)
How it was run: as §1

SMILES	Bliss excess (COLO-679 (Melanoma))	Bliss excess [1]	Bliss excess [2]	Bliss excess [3]	Bliss excess [4]	Bliss excess [5]	Bliss excess [6]	Bliss excess [7]	Bliss excess [8]	Bliss excess [9]	Bliss excess (SK-N-AS (Neuroblastoma))	Bliss excess [10]	Bliss excess [11]	Bliss excess [12]	Bliss excess [13]	Bliss excess (EW-1 (Ewing's Sarcoma))	Bliss excess [14]	Bliss excess [15]	Bliss excess [16]	Bliss excess [17]
O=C(c1cc(Cc2n[nH]c(=O)c3ccccc23)ccc1F)N1CCN(C(=O)C2CC2)CC1 [Olaparib] + CC1(C)CCC(CN2CCN(c3ccc(C(=O)NS(=O)(=O)c4ccc(NCC5CCOCC5)c([N+](=O)[O-])c4)c(Oc4cnc5[nH]ccc5c4)c3)CC2)=C(c2ccc(Cl)cc2)C1 [Venetoclax] (first compound max 10 µM, 7x7, partner max 1 µM)	-0.0643	-0.0516	-0.0254	-0.0457	-0.0118	-0.0336	-0.0404	-0.023	-0.0145	-0.0627	-0.031	0.001	-0.0323	-0.0069						
Cc1c2c(nn1C)CSCc1cc(n(C)n1)CSc1cc(c3ccccc3c1)OCCCc1c(C(=O)O)n(C)c3c-2c(Cl)ccc13 [AZD5991] + CC(=O)O[C@H]1C(=O)[C@@]2(C)[C@H]([C@H](OC(=O)c3ccccc3)[C@]3(O)C[C@H](OC(=O)[C@H](O)[C@@H](NC(=O)c4ccccc4)c4ccccc4)C(C)=C1C3(C)C)[C@]1(OC(C)=O)CO[C@@H]1C[C@@H]2O [Paclitaxel] (first compound max 1 µM, 7x7, partner max 3 µM)	0.0314	-0.007	0.0077	-0.0386	-0.0069	-0.0521	-0.0288	0.018	0.0025	0.056	-0.0065	0.0217	0.231	0.0422						
O=C(c1cc(Cc2n[nH]c(=O)c3ccccc23)ccc1F)N1CCN(C(=O)C2CC2)CC1 [Olaparib] + COc1nnc2ccc(N3CCC(c4ccc(OCCN5CCN(C)C(=O)[C@H]5C)cc4)CC3)nn12 [AZD5153] (first compound max 10 µM, 7x7, partner max 1 µM)	-0.0654	-0.0557	-0.0708	-0.057	-0.0412	-0.0413	-0.0623	0.0202	0.018	-0.0528	-0.0662	-0.0406	-0.0483	-0.0179						
C[C@@H](Oc1cc(-c2cnn(C3CCNCC3)c2)cnc1N)c1c(Cl)ccc(F)c1Cl [Crizotinib] + CC1=C(C(=CC=C1)Cl)NC(=O)C2=CN=C(S2)NC3=CC(=NC(=N3)C)N4CCN(CC4)CCO [Dasatinib] (first compound max 10 µM, 7x7, partner max 2 µM)	-0.0604	0.0295	0.0158	0.0828	-0.0089	-0.0588	0.02	0.041	-0.0204	-0.0033	-0.0164	0.182	-0.0494	0.0454						
C=CCn1c(=O)c2cnc(Nc3ccc(N4CCN(C)CC4)cc3)nc2n1-c1cccc(C(C)(C)O)n1 [AZD1775] + CCc1c2c(nc3ccc(O)cc13)-c1cc3c(c(=O)n1C2)COC(=O)[C@]3(O)CC [SN-38] (first compound max 1 µM, partner max 0.3 µM)	-0.171	-0.0126	-0.0641	-0.0694	-0.0617	-0.0799	-0.133	-0.0641	-0.114	0.0912	0.0032	0.0228	-0.0113	0.0285						
C[C@@H](Oc1cc(-c2cnn(C3CCNCC3)c2)cnc1N)c1c(Cl)ccc(F)c1Cl [Crizotinib] + Cn1cnc2c(F)c(Nc3ccc(Br)cc3Cl)c(C(=O)NOCCO)cc21 [Selumetinib] (first compound max 10 µM, 7x7, partner max 10 µM)	-0.0369	-0.0421	-0.0321	-0.0199	-0.0021	-0.047	-0.0531	-0.0107	-0.086	-0.0495	-0.0118	0.104	-0.0374	0.0464						
Cc1c2c(nn1C)CSCc1cc(n(C)n1)CSc1cc(c3ccccc3c1)OCCCc1c(C(=O)O)n(C)c3c-2c(Cl)ccc13 [AZD5991] + CS(=O)(=O)CCNCc1ccc(-c2ccc3ncnc(Nc4ccc(OCc5cccc(F)c5)c(Cl)c4)c3c2)o1 [Lapatinib] (first compound max 1 µM, 7x7, partner max 10 µM)	-0.149	-0.0365	-0.034	-0.042	0.0199	-0.0344	-0.0423	0.0129	-0.0049	0.0118	-0.0363	-0.0158	0.0116	0.0164						
C[C@@H](Nc1cc(F)cc(F)c1)c1cc(C(=O)N(C)C)cc2c(=O)cc(N3CCOCC3)oc12 [AZD8186] + CC(=O)c1c(C)c2cnc(Nc3ccc(N4CCNCC4)cn3)nc2n(C2CCCC2)c1=O [Palbociclib] (first compound max 10 µM, 7x7, partner max 10 µM)	-0.0735	0.0142	0.0147	0.0115	0.138	-0.0319	0.0599	0.0874	0.0548	-0.0596	0.0334	0.11	0.0491	-0.0285						
Cc1nc(-c2cn3c(n2)-c2ccc(-c4cnn(C(C)(C)C(N)=O)c4)cc2OCC3)n(C(C)C)n1 [Taselisib] + O=C(Nc1ccc2[nH]nc(-c3ccncc3)c2c1)[C@@H]1CCN(CC(=O)N2CCN(c3ccc(-c4ncccn4)cc3)CC2)C1 [SCH772984] (first compound max 10 µM, 7x7, partner max 5 µM)	-0.0148	-0.0535	0.0551	0.0674	0.0883	0.0526	0.0898	0.0712	0.0378	0.057	0.0187	0.0333	0.0207	0.0833						
C=CCn1c(=O)c2cnc(Nc3ccc(N4CCN(C)CC4)cc3)nc2n1-c1cccc(C(C)(C)O)n1 [AZD1775] + Nc1ccn([C@@H]2O[C@H](CO)[C@@H](O)C2(F)F)c(=O)n1 [Gemcitabine] (first compound max 1 µM, partner max 0.3 µM)	-0.067	-0.0709	-0.0385	-0.0157	0.009	-0.0204	-0.0837	0.0462	0.0009	0.0486	-0.0254	0.0183	-0.0309	0.0644						
C[C@@H](Nc1cc(F)cc(F)c1)c1cc(C(=O)N(C)C)cc2c(=O)cc(N3CCOCC3)oc12 [AZD8186] + C1CN(CCC1(C(=O)N[C@@H](CCO)C2=CC=C(C=C2)Cl)N)C3=NC=NC4=C3C=CN4 [AZD5363] (first compound max 10 µM, 7x7, partner max 10 µM)	-0.12	-0.1	-0.0038	-0.0329	-0.0183	-0.0393	0.02	0.0068	0.0547	-0.0426	-0.0294	-0.0364	0.0219	-0.0032						
CC1(C)CCC(CN2CCN(c3ccc(C(=O)NS(=O)(=O)c4ccc(NCC5CCOCC5)c([N+](=O)[O-])c4)c(Oc4cnc5[nH]ccc5c4)c3)CC2)=C(c2ccc(Cl)cc2)C1 [Venetoclax] + C=CCn1c(=O)c2cnc(Nc3ccc(N4CCN(C)CC4)cc3)nc2n1-c1cccc(C(C)(C)O)n1 [AZD1775] (first compound max 1 µM, partner max 1 µM)	-0.053	0.0355	-0.0098	-0.0144	-0.0009	-0.0213		0.005	0.0003	0.0162	-0.07	0.0612	0.0707	0.0449	0.0792	-0.0191	-0.0409	-0.0423	0.114	-0.0641
CCc1c2c(nc3ccc(O)cc13)-c1cc3c(c(=O)n1C2)COC(=O)[C@]3(O)CC [SN-38] + CN(C)CCCOc1ccc(-c2ccc3ncc4c(c3c2)n(C2CCOCC2)c(=O)n4C)cn1 [AZD0156] (first compound max 0.3 µM, 7x7, partner max 1 µM)	-0.0767	-0.0094	-0.109	0.0575	0.0222	-0.0527		0.0048	-0.0065	0.0294	-0.0061	0.0727	-0.0505	0.0459	-0.0475	0.0608	0.151	0.253	0.0076	-0.0052
COc1cccc(OCCCN)c1-c1cc(Nc2cnc(C#N)cn2)n[nH]1 [Prexasertib] + CN(C)CCCOc1ccc(-c2ccc3ncc4c(c3c2)n(C2CCOCC2)c(=O)n4C)cn1 [AZD0156] (first compound max 1 µM, 7x7, partner max 1 µM)	0.0127	0.0519	-0.0405	-0.0272	-0.0593	0.0105		-0.0035	-0.0432	-0.0189	-0.0026	-0.0204	-0.0509	-0.0373	-0.0838	-0.0145	-0.0115	-0.0121	0.0475	-0.0303
COc1cccc(OCCCN)c1-c1cc(Nc2cnc(C#N)cn2)n[nH]1 [Prexasertib] + CCc1c2c(nc3ccc(O)cc13)-c1cc3c(c(=O)n1C2)COC(=O)[C@]3(O)CC [SN-38] (first compound max 1 µM, 7x7, partner max 0.3 µM)	-0.111	0.0807	-0.0423	-0.0165	-0.0592	-0.0465		-0.015	-0.116	0.163	0.0088	0.0045	0.0234	0	-0.0093	-0.012	-0.0405	0.0876	-0.0269	-0.0446
CC1(C)CCC(CN2CCN(c3ccc(C(=O)NS(=O)(=O)c4ccc(NCC5CCOCC5)c([N+](=O)[O-])c4)c(Oc4cnc5[nH]ccc5c4)c3)CC2)=C(c2ccc(Cl)cc2)C1 [Venetoclax] + COc1cc(Nc2ncc3c(n2)-c2ccc(Cl)cc2C(c2c(F)cccc2OC)=NC3)ccc1C(=O)O [Alisertib] (first compound max 1 µM, 7x7, partner max 10 µM)	0.0194	-0.0051	-0.0117	0.0221	-0.026	0.0928		0.0428	-0.0167	0.0305	0.0947	-0.0265	-0.0415	0.0128	0.0202	0.174	-0.0572	0.0056	0.141	-0.0024
